Tests used:
S. aureus USA300 [1] = test: Pneumonia model, survival; type: in vivo, C57BL/6J mice; details: mice, 2 × 10^9 CFU i.n.; s.c. 100 mg/kg Sal A and/or 75 mg/kg latamoxef every 12 h, 96 h; PBS control 10%
Procedure: The animal experiments were performed using 6- to 8-week-old female C57BL/6J mice obtained from the Experimental Animal Center of Jilin University and conducted according to the guidelines of the Animal Care and Use Committee of Jilin University. The mouse S. aureus pneumonia model was generated as described previously. Briefly, the mice were anaesthetized with ether and inoculated with 30 μl bacterial resuspension via the left nare. The mice were then held upright to allow the bacteria to be inhaled into the lungs. For the survival assessment, groups of 10 mice were challenged with 2 × 10^9 CFU S. aureus. One hour after intranasal inoculation, the mice were subcutaneously injected with 100 mg/kg of Sal A, 75 mg/kg of latamoxef or 100 mg/kg of Sal A plus 75 mg/kg of latamoxef at 12 h intervals, and survival was assessed for 96 h. For the bacterial load, histopathological, and bronchoalveolar lavage fluid (BALF) experiments, mice were inoculated with 1 × 10^9 CFU S. aureus. The mice were then given a subcutaneous injection of 100 mg/kg Sal A, 75 mg/kg latamoxef or a combination of 100 mg/kg Sal A and 75 mg/kg every 12 h. After 24 h, the left lung of each anaesthetized mouse was aseptically excised and homogenized, and the CFU was determined by serial dilutions. […]

S. aureus USA300 [2] = test: Pneumonia model, bacterial load and histopathology of the lungs; type: in vivo, C57BL/6J mice; details: mice, 1 × 10^9 CFU i.n., 24 h
Procedure: The animal experiments were performed using 6- to 8-week-old female C57BL/6J mice obtained from the Experimental Animal Center of Jilin University and conducted according to the guidelines of the Animal Care and Use Committee of Jilin University. The mouse S. aureus pneumonia model was generated as described previously. Briefly, the mice were anaesthetized with ether and inoculated with 30 μl bacterial resuspension via the left nare. The mice were then held upright to allow the bacteria to be inhaled into the lungs. For the survival assessment, groups of 10 mice were challenged with 2 × 10^9 CFU S. aureus. One hour after intranasal inoculation, the mice were subcutaneously injected with 100 mg/kg of Sal A, 75 mg/kg of latamoxef or 100 mg/kg of Sal A plus 75 mg/kg of latamoxef at 12 h intervals, and survival was assessed for 96 h. For the bacterial load, histopathological, and bronchoalveolar lavage fluid (BALF) experiments, mice were inoculated with 1 × 10^9 CFU S. aureus. The mice were then given a subcutaneous injection of 100 mg/kg Sal A, 75 mg/kg latamoxef or a combination of 100 mg/kg Sal A and 75 mg/kg every 12 h. After 24 h, the left lung of each anaesthetized mouse was aseptically excised and homogenized, and the CFU was determined by serial dilutions. The right lungs from each group of mice were excised for histopathological analysis, and the samples were fixed in 10% formalin and stained with haematoxylin and eosin (H&E).

In the case of `CO[C@@]1(NC(=O)C(C(=O)O)c2ccc(O)cc2)C(=O)N2C(C(=O)O)=C(CSc3nnnn3C)CO[C@@H]21` (stereo partly drawn) [latamoxef], the survival rate (S. aureus USA300 [1]) is reported as 50%, the “viable MRSA loads in the lungs in comparison with the control” value (S. aureus USA300 [2]; s.c. 100 mg/kg Sal A and/or 75 mg/kg latamoxef every 12 h) is reported as “significantly decreased” and the “pulmonary inflammation (histopathology of the lungs)” value (S. aureus USA300 [2]; s.c. 100 mg/kg Sal A and/or 75 mg/kg latamoxef, H&E) is reported as “alleviated”.

Source: article PMC7006784, “The combination of salvianolic acid A with latamoxef completely protects mice against lethal pneumonia caused by methicillin-resistant Staphylococcus aureus” (Emerging Microbes & Infections, 2020)
